Literature values as cited in patent US20230149295A1, “INFLAMMATORY BOWEL DISEASE STEM CELLS, AGENTS WHICH TARGET IBD STEM CELLS, AND USES RELATED THERETO” (University of Houston System, priority 2020, published 2023).

Experiments:
STAT3 = STAT3 (Homo sapiens, UniProt P40763); conditions: cell-free assays; read-out: IC50 for inhibition of STAT3 activation and nuclear translocation
STAT1 = molecular target: T1, STAT1 (Homo sapiens, UniProt P42224); conditions: cell-free assays
T1 sequence (P42224 1-750): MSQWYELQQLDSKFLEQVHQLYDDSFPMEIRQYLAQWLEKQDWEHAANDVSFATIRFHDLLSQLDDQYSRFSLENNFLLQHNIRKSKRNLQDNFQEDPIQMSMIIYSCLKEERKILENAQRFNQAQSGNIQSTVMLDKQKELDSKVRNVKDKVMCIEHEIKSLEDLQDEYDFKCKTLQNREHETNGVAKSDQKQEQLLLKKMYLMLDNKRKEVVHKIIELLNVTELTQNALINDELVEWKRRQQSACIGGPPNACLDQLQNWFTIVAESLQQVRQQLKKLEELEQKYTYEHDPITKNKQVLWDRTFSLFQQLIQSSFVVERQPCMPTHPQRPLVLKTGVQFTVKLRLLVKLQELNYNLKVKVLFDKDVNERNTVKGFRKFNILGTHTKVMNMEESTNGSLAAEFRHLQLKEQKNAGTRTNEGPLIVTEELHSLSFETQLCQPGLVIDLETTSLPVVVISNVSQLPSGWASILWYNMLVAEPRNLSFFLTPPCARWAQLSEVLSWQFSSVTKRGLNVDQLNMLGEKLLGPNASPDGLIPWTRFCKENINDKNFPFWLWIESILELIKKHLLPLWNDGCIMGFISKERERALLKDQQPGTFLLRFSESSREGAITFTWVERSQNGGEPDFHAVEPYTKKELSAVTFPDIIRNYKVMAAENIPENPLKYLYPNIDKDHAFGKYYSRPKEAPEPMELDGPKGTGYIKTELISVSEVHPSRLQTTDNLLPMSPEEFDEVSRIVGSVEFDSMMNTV

Chain of STAT3 (P40763 whole entry, species assumed): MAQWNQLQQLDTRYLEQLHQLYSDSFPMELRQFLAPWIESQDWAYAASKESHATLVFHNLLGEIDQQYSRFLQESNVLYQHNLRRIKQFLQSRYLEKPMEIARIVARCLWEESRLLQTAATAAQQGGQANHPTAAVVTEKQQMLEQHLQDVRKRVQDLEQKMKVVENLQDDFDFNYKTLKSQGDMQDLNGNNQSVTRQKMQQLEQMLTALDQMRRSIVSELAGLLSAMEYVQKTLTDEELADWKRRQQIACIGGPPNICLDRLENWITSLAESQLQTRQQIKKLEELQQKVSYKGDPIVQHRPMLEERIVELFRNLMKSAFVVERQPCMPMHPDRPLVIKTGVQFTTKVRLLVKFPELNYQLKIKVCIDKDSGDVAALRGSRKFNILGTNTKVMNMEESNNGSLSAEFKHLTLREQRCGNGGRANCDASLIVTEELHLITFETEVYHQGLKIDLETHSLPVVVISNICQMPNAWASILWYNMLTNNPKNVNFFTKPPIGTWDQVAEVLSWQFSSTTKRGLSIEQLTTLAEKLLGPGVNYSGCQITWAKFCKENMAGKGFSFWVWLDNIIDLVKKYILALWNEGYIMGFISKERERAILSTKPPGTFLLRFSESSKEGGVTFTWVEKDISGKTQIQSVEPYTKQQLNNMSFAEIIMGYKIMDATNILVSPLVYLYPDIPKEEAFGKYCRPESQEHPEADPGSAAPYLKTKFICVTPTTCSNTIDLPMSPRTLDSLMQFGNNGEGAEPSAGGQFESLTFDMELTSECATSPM

Compound: C=CC(=O)Nc1cccc(Sc2nc(Nc3ccc(N4CCN(C)CC4)cc3)ncc2Cl)c1 [WZ8040]
- inhibition of ERBB2 phosphorylation (T7981) (ERBB2): does not inhibit

Compound: O=[N+]([O-])c1ccc2c(c1)S(=O)(=O)C=C2 [Stattic]
- IC50 (STAT3): 5.1 µM
- selectivity for STAT3 over STAT1 (STAT1): highly selectivity over STAT1
